Where no end group is shown, it is not given here.

In this assay the test system is rabbit anti-thymosin α1 antiserum. The assay can be described thus: radioimmunoassay for thymosin α1 (inhibition of tracer binding / cross-reactivity, double antibody method). The note with it: for ED50 - Amount of protein (ng) required to produce a 50% inhibition in RIA: Table 1, 125I-[Tyr1]-thymosin α1 tracer. How it is done:
a. Preparation of antisera
Synthetic thymosin α1 was coupled to Keyhole Limpet Hemocyanin (KLH) by means of glutaraldehyde using the following procedure. Equivalent amounts (dry weight) of each protein, thymosin α1 and hemocyanin, were dissolved in 0.25 M NaPO4, pH 7.0 buffer at a concentration of 2 mg/ml. […] The reaction was allowed to continue for 3 hours while being stirred at room temperature. The reaction mixture was diluted in sterile saline to a final concentration of thymosin α1 of 100 μg/ml. The solution of coupled thymosin α1 was aliquoted and stored at -20° C.
The mixture of products resulting from the cross-linking reactions carried out at room temperature was not fractionated or purified in any way. The thymosin α1 KLH conjugate was diluted with sterile normal saline and stored frozen for immunizations. Rabbits were immunized by administering 100 μg thymosin α1 (as the KLH conjugate) in emulsion with Ereund's Complete Adjuvant at 15-20 intradermal sites on the back of each rabbit according to the method of Vaitukaitis et al., J. Clin. Endoch. […] Weekly boosts of 50 μg thymosin α1 per animal in Freund's Incomplete Adjuvant were also administered at multiple intradermal sites.
b. Radioiodination of [Tyr^1 ]-thymosin α1
After a reaction time of 30 seconds at room temperature, the enzyme was inhibited by the addition of […]. […] The tracer was diluted 1:2,000 in immunoassay buffer to provide 4,000-5,000 cpm per assay tube, which is equivalent to less than 1 pg peptide mass per assay tube.
Separation of free from bound tracer is carried out by the addition of goat anti-rabbit gamma globulin serum, incubation for 1 hour at 37° C. and finally incubation at 4° C. for 16 hours. The immunoprecipitate is pelleted by centrifugation at 2500 rpm for 20 minutes, the supernatant is aspirated and discarded, and the radioactivity in the immunoprecipitate is counted in an automatic gamma spectrometer. The counts per minute for standards and unknowns are corrected for non-specific background and compared to the total counts per minute for the reaction tubes where no competing antigen was introduced.

As to Fetuin (bovine): Fetuin (bovine), the “ED50 - Amount of protein (ng) required to produce a 50% inhibition in RIA” value (“ED50 … to produce a 50% inhibition in RIA” below) was > 250,000 ng. In the case of “Natural thymosin α1: heat stable, acidic polypeptide composed of 28 amino acid residues, isolated from calf thymus thymosin fraction 5 (SDAAVDTSSEITTKDLKEKKEVVEEAEN; ends and bridges not checked; UniProt P01252 2-29, looked up)”, the “ED50 … to produce a 50% inhibition in RIA” value worked out at 0.45 ng. Regarding “Cytochrome C (equine): Cytochrome C (equine)”, the “ED50 … to produce a 50% inhibition in RIA” value is reported as > 200,000 ng.

For “thymosin α1: heat stable, acidic polypeptide composed of 28 amino acid residues (SDAAVDTSSEITTKDLKEKKEVVEEAEN; ends and bridges not checked; UniProt P06454 2-29, looked up)”, where the note is “RIA standard curve”, the “ED50 (50% inhibition) of standard curve” value was 130 to 160 pg, the “operating range for the assay” value was in the range of 15 to 800 pg and the “slope at inflection point (50% inhibition)” value is -1.0. The “minimal detectable dose (10% inhibition)” value (RIA standard curve, typically) was 8 to 15 pg.

For the molecule “TP.5: TP.5 (Ortho Pharmaceuticals) [reference compound]”, the “cross-reactivity / competition in the RIA (in words)” value (shortened to “cross-reactivity / competition”) is given as “no cross-reactivity” and the “ED50 … to produce a 50% inhibition in RIA” value is on record as > 15,000 ng. Consider Hemoglobin (human): Hemoglobin (human), for which the “ED50 … to produce a 50% inhibition in RIA” value is on record as > 200,000 ng.

In the case of Glucagon (porcine): Glucagon (porcine), the “ED50 … to produce a 50% inhibition in RIA” value was > 500,000 ng. For “thymopoietin II fragment 29-41: thymopoietin II fragment 29-41 (Bachem, Inc.) (AGEQRKDVYVQLY; UniProt P42167 29-41, looked up, fragment) [reference compound]”, the “cross-reactivity / competition” value is “no cross-reactivity”. Consider “RPPGFSPFR [Bradykinin, reference compound]”, for which the “ED50 … to produce a 50% inhibition in RIA” value was > 50,000 ng.

Regarding “Synthetic thymosin α1: thymosin α1 obtained by peptide synthesis procedures (SDAAVDTSSEITTKDLKEKKEVVEEAEN; ends and bridges not checked; UniProt P06454 2-29, looked up) [reference compound]”, the “ED50 … to produce a 50% inhibition in RIA” value turned out to be 0.40 ng. Still for that read-out and setting: then “Transferrin (human): Transferrin (human)”, with > 50,000 ng. On to Insulin (porcine): Insulin (porcine), for which the “ED50 … to produce a 50% inhibition in RIA” value is > 200,000 ng. With “Erythopoietin (human): Erythopoietin (human)”, the “ED50 … to produce a 50% inhibition in RIA” value is listed as > 160,000 ng. For the molecule “Serum albumin (bovine): Serum albumin (bovine)”, the “ED50 … to produce a 50% inhibition in RIA” value is > 250,000 ng.

B1: Myoglobin (equine): Myoglobin (equine) (protein, UniProt P68082 2-154, looked up)
Myoglobin: GLSDGEWQQVLNVWGKVEADIAGHGQEVLIRLFTGHPETLEKFDKFKHLKTEAEMKASEDLKKHGTVVLTALGGILKKKGHHEAELKPLAQSHATKHKIPIKYLEFISDAIIHVLHSKHPGDFGADAQGAMTKALELFRNDIAAKYKELGFQG
As for B1, the “ED50 … to produce a 50% inhibition in RIA” value is on record as 50,000 ng.

B2: alpha-fetoprotein: oncodevelopmental antigen alpha-fetoprotein (Hoffmann-La Roche Inc.) (protein, UniProt P02771 19-609, looked up)
Alpha-fetoprotein: RTLHRNEYGIASILDSYQCTAEISLADLATIFFAQFVQEATYKEVSKMVKDALTAIEKPTGDEQSSGCLENQLPAFLEELCHEKEILEKYGHSDCCSQSEEGRHNCFLAHKKPTPASIPLFQVPEPVTSCEAYEEDRETFMNKFIYEIARRHPFLYAPTILLWAARYDKIIPSCCKAENAVECFQTKAATVTKELRESSLLNQHACAVMKNFGTRTFQAITVTKLSQKFTKVNFTEIQKLVLDVAHVHEHCCRGDVLDCLQDGEKIMSYICSQQDTLSNKITECCKLTTLERGQCIIHAENDEKPEGLSPNLNRFLGDRDFNQFSSGEKNIFLASFVHEYSRRHPQLAVSVILRVAKGYQELLEKCFQTENPLECQDKGEEELQKYIQESQALAKRSCGLFQKLGEYYLQNAFLVAYTKKAPQLTSSELMAITRKMAATAATCCQLSEDKLLACGEGAADIIIGHLCIRHEMTPVNPGVGQCCTSSYANRRPCFSSLVVDETYVPPAFSDDKFIFHKDLCQAQGVALQTMKQEFLINLVKQKPQITEEQLEAVIADFSGLLEKCCQGQEQEVCFAEEGQKLISKTRAALGV
On to B2, for which the “cross-reactivity / competition” value was “do not cross-react”.

B3: CEA: oncodevelopmental antigen, carcinoembryonic antigen (Hoffmann-La Roche Inc.) (protein, UniProt P06731 35-685, looked up)
Cell adhesion molecule CEACAM5: KLTIESTPFNVAEGKEVLLLVHNLPQHLFGYSWYKGERVDGNRQIIGYVIGTQQATPGPAYSGREIIYPNASLLIQNIIQNDTGFYTLHVIKSDLVNEEATGQFRVYPELPKPSISSNNSKPVEDKDAVAFTCEPETQDATYLWWVNNQSLPVSPRLQLSNGNRTLTLFNVTRNDTASYKCETQNPVSARRSDSVILNVLYGPDAPTISPLNTSYRSGENLNLSCHAASNPPAQYSWFVNGTFQQSTQELFIPNITVNNSGSYTCQAHNSDTGLNRTTVTTITVYAEPPKPFITSNNSNPVEDEDAVALTCEPEIQNTTYLWWVNNQSLPVSPRLQLSNDNRTLTLLSVTRNDVGPYECGIQNELSVDHSDPVILNVLYGPDDPTISPSYTYYRPGVNLSLSCHAASNPPAQYSWLIDGNIQQHTQELFISNITEKNSGLYTCQANNSASGHSRTTVKTITVSAELPKPSISSNNSKPVEDKDAVAFTCEPEAQNTTYLWWVNGQSLPVSPRLQLSNGNRTLTLFNVTRNDARAYVCGIQNSVSANRSDPVTLDVLYGPDTPIISPPDSSYLSGANLNLSCHSASNPSPQYSWRINGIPQQHTQVLFIAKITPNNNGTYACFVSNLATGRNNSIVKSITVSASGTSPGLSA
Consider B3, for which the “cross-reactivity / competition” value is “do not cross-react” and the “ED50 … to produce a 50% inhibition in RIA” value is > 25,000 ng.

The values are drawn from US4339427A, “Radioimmunoassay of thymosinα” (Hoffmann-la Roche Inc., priority 1980, dated 1982).
